Assay results published in patent publication US8217035B2, “Pyrimidine derivatives used as PI-3-kinase inhibitors” (Novartis AG, priority 2006, dated 2012).
Where two headings read alike, the source gives them in different places.

Columns and labels:
[1] = molecular target: PI3 kinase alpha (Homo sapiens, UniProt P42336); assay: PI3K ATP depletion assay (Biological Method 1, Assay 3; KinaseGlo luminescence); assay type: biochemical; details: ATP depletion assay, read-out: PI3 Kinase Alpha, IC50
Chain of PI3 kinase alpha (P42336 whole entry): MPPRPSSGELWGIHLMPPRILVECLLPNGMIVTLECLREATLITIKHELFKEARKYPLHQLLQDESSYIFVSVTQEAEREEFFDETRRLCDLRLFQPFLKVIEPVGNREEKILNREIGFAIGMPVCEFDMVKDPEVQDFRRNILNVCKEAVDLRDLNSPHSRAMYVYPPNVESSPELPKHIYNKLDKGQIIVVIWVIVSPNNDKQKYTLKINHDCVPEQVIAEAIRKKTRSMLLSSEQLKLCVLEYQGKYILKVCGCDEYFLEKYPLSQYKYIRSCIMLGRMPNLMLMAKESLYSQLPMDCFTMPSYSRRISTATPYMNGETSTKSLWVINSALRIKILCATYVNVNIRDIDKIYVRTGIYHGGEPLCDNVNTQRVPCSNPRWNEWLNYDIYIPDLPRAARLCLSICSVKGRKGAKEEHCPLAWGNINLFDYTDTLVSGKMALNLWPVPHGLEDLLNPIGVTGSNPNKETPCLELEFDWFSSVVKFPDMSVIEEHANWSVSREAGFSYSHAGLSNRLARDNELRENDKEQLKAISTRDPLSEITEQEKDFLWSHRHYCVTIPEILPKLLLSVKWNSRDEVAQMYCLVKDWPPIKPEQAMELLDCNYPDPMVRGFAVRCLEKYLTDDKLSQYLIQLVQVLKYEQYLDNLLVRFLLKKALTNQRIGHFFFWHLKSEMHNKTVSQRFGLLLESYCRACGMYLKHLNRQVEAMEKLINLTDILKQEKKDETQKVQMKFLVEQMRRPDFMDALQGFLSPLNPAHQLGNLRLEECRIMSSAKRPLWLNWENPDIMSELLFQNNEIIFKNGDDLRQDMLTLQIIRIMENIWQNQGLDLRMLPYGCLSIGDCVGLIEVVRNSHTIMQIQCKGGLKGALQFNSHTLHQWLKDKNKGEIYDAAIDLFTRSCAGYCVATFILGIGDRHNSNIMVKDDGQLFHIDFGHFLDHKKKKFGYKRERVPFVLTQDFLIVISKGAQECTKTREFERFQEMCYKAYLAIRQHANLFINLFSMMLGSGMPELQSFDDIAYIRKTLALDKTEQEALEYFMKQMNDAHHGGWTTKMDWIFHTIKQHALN
Chain of PI3 kinase alpha (P27986 whole entry partner): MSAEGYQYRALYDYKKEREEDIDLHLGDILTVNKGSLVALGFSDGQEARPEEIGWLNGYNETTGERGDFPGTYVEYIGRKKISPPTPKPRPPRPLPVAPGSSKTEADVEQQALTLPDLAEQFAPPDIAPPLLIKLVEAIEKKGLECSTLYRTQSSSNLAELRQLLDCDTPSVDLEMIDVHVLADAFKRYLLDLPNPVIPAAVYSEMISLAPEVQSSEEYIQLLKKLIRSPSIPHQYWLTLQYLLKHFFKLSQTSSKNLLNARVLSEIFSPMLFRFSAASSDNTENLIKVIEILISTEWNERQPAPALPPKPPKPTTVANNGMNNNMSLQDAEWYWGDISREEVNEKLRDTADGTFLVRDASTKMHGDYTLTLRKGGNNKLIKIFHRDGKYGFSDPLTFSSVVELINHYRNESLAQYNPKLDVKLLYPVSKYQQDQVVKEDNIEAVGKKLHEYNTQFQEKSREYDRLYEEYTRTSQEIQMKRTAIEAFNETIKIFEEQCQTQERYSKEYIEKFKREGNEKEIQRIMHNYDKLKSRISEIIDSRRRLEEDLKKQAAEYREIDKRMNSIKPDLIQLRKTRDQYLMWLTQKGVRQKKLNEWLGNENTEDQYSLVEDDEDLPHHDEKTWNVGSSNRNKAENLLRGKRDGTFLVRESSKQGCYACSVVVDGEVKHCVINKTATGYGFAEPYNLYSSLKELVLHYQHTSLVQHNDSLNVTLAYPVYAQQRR
Procedure: The PI3 kinase alpha IC50 values shown in Table 1 were determined according to the ATP depletion assay as disclosed herein in Biological Method 1.
Assay 3: ATP Depletion Assay
Compounds to be tested are dissolved in DMSO and directly distributed into a black 384-well plate at 1.25 μL per well. To start the reaction, 25 μL of 10 nM PI3 kinase and 5 μg/mL 1-alpha-phosphatidylinositol (PI) are added into each well followed by 25 μL of 2 μM ATP. The reaction is performed until approx 50% of the ATP is depleted, and then stopped by the addition of 25 μL of KinaseGlo solution purchased from Promega. The stopped reaction is incubated for 5 minutes and the remaining ATP is then detected via luminescence.

[2] = test system: A2780 ovarian cancer cells; assay: Cellular proliferation in A2780 cells, Cell Titer Glo (Biological Method 4); assay type: cell-based; details: Homo sapiens
Procedure: In addition, many of the compounds of Table 1 were tested to determine their inhibitory activity in a cellular proliferation assay according to Biological Method 4.
The ability of the compounds of the invention to inhibit cellular proliferation were determined by using Cell Titer Glo, a commercially available assay from Promega Corporation. A2780 ovarian cancer cells were seeded in TC treated 96-well plates at a density of 1,000 per well in DMEM, 10% FBS, 1% Sodium Pyruvate, and 1% Penicillin Streptomycin for a minimum of 2 hrs prior to addition of compound. For each concentration of test compound, 2 μl (500×) aliquots of compound or 100% DMSO diluted in 500 μl of culture medium for 2× concentration then diluted 1× on the Cells. Cells were incubated for 72 hrs at 37° C., 5% CO2. After the 72 hour incubation, Cell Titer Glo reagent is added to determine number of viable cells remaining after exposure to the compound, and the EC50 value was calculated. The assay was performed according to the manufacturer's instruction (Promega Corporation, Madison, Wis. USA). Each experimental condition was performed in duplicate.

[3] = ovarian cancer cell line A2780, Biological Method 4

| Compound | IC50 [1] | EC50 ([2]; ovarian cancer cell line A2780) | IC50 ([1]; Biological Method 1) | EC50 [2, 3] |
| --- | --- | --- | --- | --- |
| COC(=O)N1CCC[C@H](Oc2cc(-c3cnc(N)cc3C(F)(F)F)nc(N3CCOCC3)n2)C1 [Compound 454] | < 1 µM | < 10 µM |  |  |
| CC(=O)c1ccccc1-c1cc(-c2ccc(N)nc2)nc(N2CCOCC2)n1 [Compound 255] |  |  | < 1 µM | < 25 µM |
| Nc1cc(-c2cnc(N)nc2)nc(N2CCOCC2)n1 [Compound 301] |  |  | < 1 µM | < 25 µM |
| Cn1cc(-c2cc(-c3ccc(N)nc3)nc(N3CCOCC3)n2)cn1 [Compound 247] |  |  | < 1 µM | < 10 µM |
| Cc1c(Cl)nc(N2CCOCC2)nc1-c1cnc(N)nc1 [Compound 483] | < 1 µM | < 25 µM |  |  |
| Nc1ncc(-c2nc(N3CCOCC3)ncc2C(=O)N2CCNC(=O)C2)cn1 [Compound 427] | < 10 µM | < 25 µM |  |  |
| CC(C)OC(=O)N1CCC[C@@H](Oc2cc(-c3cnc(N)nc3N)nc(N3CCOCC3)n2)C1 [Compound 527] | < 1 µM | < 10 µM |  |  |
| Nc1ncc(-c2cc(OC3CCOCC3)nc(N3CCOCC3)n2)cn1 [Compound 515] | < 1 µM | < 1 µM |  |  |
| N#Cc1cc(-c2ccc(N)nc2)nc(N2CCOCC2)n1 [Compound 415] | < 1 µM | < 25 µM |  |  |
| CC(C)Oc1ccnc(Nc2cc(-c3cnc(N)cc3C(F)(F)F)nc(N3CCOCC3)n2)c1 [Compound 432] | < 1 µM | < 10 µM |  |  |
| Nc1cc(C(F)(F)F)c(-c2cc(Nc3cccc(S(=O)(=O)N4CCOCC4)c3)nc(N3CCOCC3)n2)cn1 [Compound 316] |  |  | < 1 µM | < 10 µM |
| Nc1ncc(-c2cc(NC3CC3)nc(N3CCOCC3)n2)cn1 [Compound 402] | < 1 µM | < 10 µM |  |  |
| CN(C)CCOc1ccc(-c2cc(-c3cnc(N)nc3)nc(N3CCOCC3)n2)cn1 [Compound 223] |  |  | < 1 µM | < 10 µM |
| CC(=O)N1CCC(Oc2ccc(Nc3cc(-c4cnc(N)nc4N)nc(N4CCOCC4)n3)cn2)CC1 [Compound 261] |  |  | < 1 µM | < 10 µM |
| Nc1ccc(-c2cc(Nc3cccc(F)c3)nc(N3CCOCC3)n2)cn1 [Compound 439] | < 1 µM | < 10 µM |  |  |
| Nc1cc(C(F)(F)F)c(-c2cc(N3CCN(c4ccccc4)C3=O)nc(N3CCOCC3)n2)cn1 [Compound 18] | < 1 µM | < 1 µM |  |  |
| Cc1c(-c2ccc(S(C)(=O)=O)cc2)nc(N2CCOCC2)nc1-c1cnc(N)nc1 [Compound 549] | < 1 µM | < 10 µM |  |  |
| NC(=O)c1ccccc1Nc1cc(-c2ccc(N)nc2)nc(N2CCOCC2)n1 [Compound 352] |  |  | < 1 µM | < 10 µM |
| N#Cc1ccc(Nc2cc(-c3cnc(N)cc3C(F)(F)F)nc(N3CCOCC3)n2)cc1 [Compound 283] |  |  | < 1 µM | < 10 µM |
| Nc1cc(C(F)(F)F)c(-c2cc(Cl)nc(N3CCOCC3)n2)cn1 [Compound 467] | < 1 µM | < 25 µM |  |  |
| Nc1cc(C(F)(F)F)c(-c2cc(-c3cncc(CN4CCCCC4)c3)nc(N3CCOCC3)n2)cn1 [Compound 263] |  |  | < 1 µM | < 10 µM |
| Nc1ccc(-c2cc(Nc3ccnc4cc(C(F)(F)F)ccc34)nc(N3CCOCC3)n2)cn1 [Compound 380] |  |  | < 1 µM | < 10 µM |
| CC(=O)N1CCc2ccc(Nc3cc(-c4ccc(N)nc4)nc(N4CCOCC4)n3)cc21 [Compound 356] |  |  | < 1 µM | < 10 µM |
| COCCNc1cc(-c2cnc(N)nc2)nc(N2CCOCC2)n1 [Compound 14] | < 1 µM | < 1 µM |  |  |
| Nc1ccc(-c2cc(-n3ncc4cccc(N)c43)nc(N3CCOCC3)n2)cn1 [Compound 345] |  |  | < 1 µM | < 10 µM |
| Nc1cc(C(F)(F)F)c(-c2cc(O[C@H]3CCN(C(=O)c4ccccc4)C3)nc(N3CCOCC3)n2)cn1 [Compound 532] | < 1 µM | < 10 µM |  |  |
| CN(C)C(=O)C1CN(c2cc(-c3cnc(N)cc3C(F)(F)F)nc(N3CCOCC3)n2)CCO1 (stereo not drawn) [Compound 326] |  |  | < 1 µM | < 25 µM |
